{"source": "patent US11850257B2", "about": "“Method for enhancing beta-adrenergic response” (Saganatura EHF., priority 2019, dated 2023)", "key": {"[1]": {"system": "β-adrenergic receptors in porcine detrusors", "assay": "Contraction of potassium-contracted pig detrusor muscle strips in organ baths, relaxation by adrenaline and desensitization", "from_the_text": "Bladders were obtained from freshly slaughtered pigs and placed in cold Krebs solution (composition, mM: sodium chloride 119, potassium chloride 4.6, sodium bicarbonate 15, calcium chloride 1.5, magnesium chloride 1.2, sodium dihydrogen phosphate 1.2, glucose was 1.98 g/L) which had been gassed by 5% CO2 and put on ice. Subsequently four adjacent strips were cut from the detrusor (typically 2 mm wide and 20 mm long). In each case, four strips were cut, one of which served as a control. The tissues were mounted in a 100-mL organ bath containing sodium Krebs solution, which was maintained at 37° C. and continuously gassed with 95% O2 and 5% CO2. The strips were placed under a tension of ≈1 g and allowed to equilibrate for 60 minutes, during which the bath was changed three times. The muscle contraction was recorded by a transducer. The muscle strips were then contracted by addition of potassium up to 50 mM and allowed to equilibrate.\nAbout 40 minutes after addition of potassium, cnidimoside A was given to the organ baths. Cnidimoside A was isolated from Angelica archangelica leaf by boiling the dried leaf in water, extracting the water phase by ethyl acetate and subjecting the resulting organic phase to silica acid chromatography column. Cnidimoside A is eluted by 10% methanol in chloroform after washing the column with ethyl acetate and chloroform. The cnidimoside A rich fractions were recrystallized in methanol.\nThe muscle strip in the fourth organ bath (D in FIG. 1) received the same amount of DMSO but no cnidimoside A. About 20 and 30 minutes later (see FIG. 1, times 9 and 10) adrenaline was added to all organ baths, resulting in 0.4 (time 9) and 1.2 μM (time 10) final concentration, respectively.\nAbout 75 minutes after addition of potassium, cnidimoside A dissolved in DMSO was added to three organ baths (E-G, time-10 in FIG. 2), the fourth receiving the same amount of DMSO (bottom graph (H) in FIG. 2). Fifteen minutes after the addition of cnidimoside A, adrenaline was added to all baths, to a final concentration of 2 μM (time 11 in FIG. 2). In the absence of cnidimoside A the muscle strip relaxed for about 15 minutes, but then started contracting again, reaching the same level of contraction about 50 minutes after the addition of adrenaline."}, "mice [2]": {"system": "mice", "assay": "Mouse toxicity experiment, Angelica archangelica water-extract mixed in food for 6 months", "assay_type": "in vivo", "settings": "daily consumption of cnidimoside A 3.35 mg/kg (calculated from extract content 0.15%)", "experimental": "In a mouse experiment, we fed mice with about […] Angelica archangelica water-extract (mixed in food) daily for 6 months. Assuming the mice to be on average 23 g and cnidimoside A content in the extract to be 0.15%, this means that the daily consumption of cnidimoside A was 3.35 mg/kg."}, "Water solubility": {"assay": "Water solubility", "assay_type": "physicochemical"}, "mice [3]": {"system": "mice", "settings": "100 mg/kg daily, 30 days; cited from earlier work"}}, "data": [{"smiles": "C/C(=C/Cc1c(O)cc2oc(C)cc(=O)c2c1O)CO[C@@H]1O[C@H](CO)[C@@H](O)[C@H](O)[C@H]1O", "note": "[cnidimoside A, 5,7-dihydroxy-2-methyl-6-[(Z)-3-methyl-4-[(2R,3R,4S,5S,6R)-3,4,5-trihydroxy-6-(hydroxymethyl)oxan-2-yl]oxybut-2-enyl]chromen-4-one]", "values": [{"measurement": "Desensitization of the relaxation response to adrenaline", "setting": "[1]; 13 μM cnidimoside A (bath C), adrenaline 0.4 and 1.2 μM, Experiment I", "value": "occurred slowly"}, {"measurement": "Desensitization of the relaxation response to adrenaline", "setting": "[1]; 38 μM cnidimoside A (bath B), adrenaline 0.4 and 1.2 μM, Experiment I", "value": "not observed at all"}, {"measurement": "Desensitization of the relaxation response to adrenaline", "setting": "[1]; 112 μM cnidimoside A (bath A), adrenaline 0.4 and 1.2 μM, Experiment I", "value": "not observed at all"}, {"measurement": "Desensitization of the relaxation response to adrenaline", "setting": "[1]; 200 μM cnidimoside A, adrenaline 2 μM, Experiment II", "value": "occurs much slower"}, {"measurement": "Repression of desensitization across doses", "setting": "[1]; 13, 38 and 112 μM cnidimoside A vs DMSO control, Experiment I", "value": "repressed dose-dependently"}, {"measurement": "Toxic effect", "setting": "mice [2]", "value": "No toxic effect"}, {"measurement": "Water solubility", "setting": "Water solubility", "value": "highly water soluble"}, {"measurement": "Effect on the weight of body, liver, spleen or thymus", "setting": "mice [3]", "value": "without affecting"}]}]}
